Source: US20260034042A1, “Composition with Improved SPF and UVA Photoprotection” (Symrise AG, priority 2022, published 2026)

How the values were obtained:
Assay type in all cases: physicochemical
[1] = Determination of the in-vitro SPF on PMMA plates (Labsphere UV-200S, Colipa method)
Description: (§1) Determination of the in-vitro SPFs and UVA-PF
(§2) The SPF boosting and UVA-PF boosting test is carried out as in-vitro determination of SPFs.
(§3) Principle: The formulation to be tested (emulsion, solution) is weighed on PMMA plates with the help of an analytical balance. The formulation if distributed and incorporated on the plate using a method corresponding to the formulation. The thus prepared plates are then measured on a Labsphere device and the results are calculated as SPF with a suitable software.
(§4) PMMA plates (Polymethylmethacrylate), measuring 3 cm×8.5 cm (WVVW5 plates based on […] “Determination of UVA photoprotection in vitro” with 5μ roughness by Schonberg GmbH & Co. AG) are used to perform an SPF measurement.
(§5) A reference sample is obtained by distributing 25 to 28 mg glycerin (99.5%) with the index finger on the roughened side of the PMMA plate. The glycerin film must be very thin and uniform. Subsequently, this plate is stored for at least 2 hours.
(§6) The reference plate is measured with the following transmission values:
(§7) The sample to be measured should be homogeneously mixed with a spatula before application. 1.2 mg/cm2 of sample is evenly distributed in several rows of dots on the PMMA plate. In order to minimise the evaporation of the sample during weighing, this process must be carried out quickly. The sample is then evenly distributed by hand with a finger previously saturated with the sample material. The distribution takes place in two phases: • Phase 1: Fast and uniform distribution with a slight pressure until the emulsion is broken. • Phase 2: The sample is massaged into the rough surface with strong pressure and the process should last 30 seconds. In this context under strong pressure means that when massaged on a scale, this indicates at least […].
(§8) Sun oils: The product quantity is generally 1.3 mg/cm^2. For strongly spreading oils, less product is applied, as the amount of oil cannot be “absorbed” from the plate. Then the amount of application should be reduced to 1.0-0.75 mg/cm^2. Application method here is also the 30 s fast/light and 30 s strong method. • Sun sprays: The “30/30 method” applies here (especially for thicker sprays). • For very liquid sprays (similar to water): • Fast and uniform distribution with a slight pressure, until the emulsion “breaks”. • The process should take 45 s.
(§9) The finished sample plates are stored dust-free and measured at the earliest after 15 minutes.
(§10) The samples are measured using the UV-200S device, using the specified Colipa method. The Labsphere user manual also applies.
(§11) A new “Study” is opened via File and then the “Colipa Guideline 2011” method is selected under the heading “Study”. In the new window “Colipa Method Options” the number of plates (3 plates), the measuring points per plate (5 measuring points) and the in vivo SPF and, if necessary, the irradiance intensity of the external irradiance device (Solar Simulator Irradiance) entered. • The irradiance set on the external device is 765 W/m2 as standard. The complete naming of the sample is done via Study”, “Study Information”.
At the beginning of the measurement, a blank value of the glycerin reference sample is measured (“scan blank plate”). In order to determine the SPF of a sample, a total of 15 measuring points (3 plates of 5 measuring points) are then created (“Scan Location”).
• After the first measurement run, the device calculates an irradiation dose (Irradiation Dose/J/cm2) and the duration (exposure time) for each plate. The plates are irradiated in the external irradiation device (irradiation duration=average value of the 3 plates).
The calculation of irradiation dose and exposure time is based on the irradiance (765 W/m^2) set on the external device. […]

[2] = Determination of the in-vitro UVA-PF on PMMA plates (Labsphere UV-200S, Colipa method, post irradiation)
Description: UVA-photoprotection is expressed in UVA-protection factor (UVA-PF). UVA-PF is similar to SPF in that it is a measure of how well a sunscreen protects the skin from UVA radiation. It is performed in a similar manner by irradiating the skin with UVA. This can be done in vivo with human skin or in vitro, where it is performed by applying the sunscreen to an PMMA plate (Polymethymethacrylate plate) and measuring how much UVA passes through the slide with or without the sunscreen. To characterize protection from UVA radiation, the PPD (Persistent Pigment Darkening) method, which measures the color of the skin observed 2 to 4 hours after exposure of the skin to UVA radiation, is used. The PPD method appears to correlate well with the in vitro UVA-PF testing.
as §1, §2, §3, §4, §5, §6, §7, §8, §9, §10, §11
(§12) At the beginning of the measurement, a blank value of the glycerin reference sample is measured (“scan blank plate”). […]

[3] = Critical wavelength of the sunscreen formulation (post irradiation)
Source text: The term “broad-spectrum photo-protection” means photo-protection from both UVA and UVB radiation. Broad-spectrum is based on the breadth of protection offered by a sunscreen in the UVA and UVB spectrums. In order for a sunscreen to be considered broad-spectrum, it must have achieved a critical wavelength of at least 370 nm, meaning that 10% of the protection that the sunscreen offers has to be for wavelengths above 370 nm. A critical wavelength>370 nm is a rigorous minimum that sunscreen products should achieve to be labelled as broad-spectrum”.
The term “critical wavelength” is defined as the wavelength at which the area under the UV protection curve (% protection versus wavelength) represents 90% of the total area under the curve in the UV region (280-400 nm). […]
In order to calculate the critical wavelength (λc), mathematical integration of the measured spectral absorbance from […] to 400 nm is performed to calculate the area beneath the absorbance curve. The critical wavelength value is based upon the inherent shape and breadth of the absorbance cure, not its amplitude. The critical wavelength is the wavelength below which 90% of the area under the absorbance curve sides. […]
The samples are measured using the UV-200S device, using the specified Colipa method. […]
as §12

[4] = 1.0% by weight added to sunscreen with modern organic UV-filter mixture (Example 1; control SPF 31.7)
[5] = 1.0% by weight, classic organic UV-filter combination (Example 3)
[6] = 1.0% by weight, classic organic UV-filter combination (Example 3; control SPF 33.7)
[7] = 1.0% by weight, modern organic UV-filter mixture (Example 1)
[8] = 3.0% by weight added to sunscreen with modern organic UV-filter mixture (Example 1; control SPF 31.7)
[9] = 3.0% by weight, classic organic UV-filter combination (Example 3)
[10] = 3.0% by weight, classic organic UV-filter combination (Example 3; control SPF 33.7)
[11] = 3.0% by weight, modern organic UV-filter mixture (Example 1)
[12] = 3.0%, modern organic UV-filter mixture (Example 1)

critical wavelength ([3]; 1.0% and 3.0%, classic sunscreen composition (Example 3; without MAA 380 nm)) [nm] | critical wavelength ([3]; 3.0%, modern sunscreen composition (Example 1; without MAA 378 nm)) [nm] | Structure (SMILES) | in vitro SPF [1, 4] | in vitro SPF higher than reference sample without MAA [1, 5] [%] | in vitro SPF [1, 6] | in vitro SPF higher than reference sample without MAA [1, 7] [%] | in vitro SPF [1, 8] | in vitro SPF higher than reference sample without MAA [1, 9] [%] | in vitro SPF [1, 10] | in vitro SPF higher than reference sample without MAA [1, 11] [%] | improvement of the UVA-PF compared to the control sample [2, 12] [%] | improvement of the UVA-PF compared to the control sample ([2]; 1.0%, classic organic UV-filter combination (Example 3)) [%] | improvement of the UVA-PF compared to the control sample ([2]; 1.0%, modern organic UV-filter mixture (Example 1)) [%] | improvement of the UVA-PF compared to the control sample ([2]; 3.0%, classic organic UV-filter combination (Example 3)) [%] | in vitro SPF higher than control/reference sample without MAA ([1]; 1.0% by weight, modern organic UV-filter mixture of Example 2) [%] | in vitro SPF ([1]; 1.0% by weight, modern organic UV-filter mixture of Example 2 (control SPF 52.4)) | improvement of the UVA-PF compared to the control sample ([2]; 1.0%, modern organic UV-filter mixture of Example 2) [%]
 |  | CCOC(=O)CNC1=C/C(=N/c2ccccc2)CC(C)(C)C1 [MAA-1, ethyl 2-[[5,5-dimethyl-3-phenylimino-cyclohexen-1-yl]amino]acetate] | 53.4 | 5.0 | 35.4 | 68.5 | 86.1 | 61.4 | 54.4 | 171.6 | 9.35 |  |  |  |  |  | 
381 | 379 | COc1ccc(/N=C2\CC(C)(C)CC3=C2SCC(C(=O)O)N3)cc1OC (centres unmarked) [MAA-13, 8-((3,4-dimethoyxphenyl)imino)-6,6-dimethyl-3,4,5,6,7,8-hexahydro-2-H-benzol[b][1,4]thiazine-3-carboxylic acid] | 34.4 | 7.7 | 36.3 | 8.52 | 39.8 | 87.2 | 63.1 | 25.6 | 30.75 | 3.2 | 14.8 | 5.2 |  |  | 
 |  | CC1(C)CC(NCC(=O)O)=C/C(=N/c2ccccc2)C1 [MAA-20, 2-[(5,5-dimethyl-3-phenylimino-cyclohexen-1-yl)amino]acetic acid] |  |  |  |  |  |  |  |  |  |  |  |  | 9 | 57.1 | 18.2
